# Legend:
# [1] = Urinary excretions of β-lactam antibiotics after rectal suppository (rabbit); format: in vivo; conditions: Compound (I) 5%, Witepsol H-15
# Description: The absorption into the circulation through the rectum of the rectal suppositories thus prepared was determined by measuring urinary excretion of the pharmacologically-active substance.
# Thus, Sarcina lutea and Bacillus subtilis were used as assay organisms for penicillins and cephalosporins, respectively, and the assays were performed by the paper disk method (cultivation at 37° C. for from 15 to 20 hours).
# [2] = Urinary excretions of AB-PC after administration of AB-PC rectal suppository (human); format: in vivo; conditions: AB-PC 125 mg (potency); for Urinary excretions of AB-PC (%) (0-6 hr.): Witepsol H-15, % of dose; for Urinary excretions (%) 0-2 (hr.) / Urinary excretions (%) 2-4 (hr.) / Urinary excretions (%) 4-6 (hr.) / Urinary excretions (%) Total (0-6 hr.): Compound (I) 10%, Witepsol H-15, Table 3
# Description: The thus-obtained suppositories were administered to healthy adult male humans from the anus, and the urinary excretions of AB-PC were determined.
# [3] = Blood glucose level after rectal insulin administration (rabbit); format: in vivo; conditions: rectal suppository, Insulin 6 I. U., Compound (I) 5%; for Blood glucose level 0 hr.: Witepsol H-15, baseline, level at hour 0 considered 100%; for Blood glucose level 0.5 hr. / Blood glucose level 1.0 hr. / Blood glucose level 2.0 hr. / Blood glucose level […]. / Blood glucose level 0.75 hr.: Witepsol H-15, relative to hour 0 = 100%
# Excerpt: To measure glucose levels, blood samples were taken from the auricular vein at timed intervals and assayed by the glucose oxidase method.
# The urinary excretion values in Tables 1 to 5 are percentages based on the dose administered. The blood glucose levels in Table 6 are relative blood glucose levels when the blood glucose level at hour 0 is considered to be 100%.
# [4] = Urinary excretions of aminoglycoside antibiotics after rectal suppository (rabbit); conditions: Compound (I) 5%, Witepsol H-15
# Description: The thus-obtained suppositories were administered to rabbits and the urinary excretions of the pharmacologically-active substance were determined.
# Each rectal suppository was administered to a depth of 2 cm from the anus of a rabbit fasted 24 hours.
# To measure the urinary excretions, urine samples were collected after administration at timed intervals, diluted and assayed by the biological assay procedure.
# Thus, Bacillus subtilis was used as assay organism and the assays were performed by the cylinder plate method (cultivation at 37° C. for 15 to 20 hours).
# [5] = Kanamycin sulfate 125 mg (potency)
# [6] = Dibekacin sulfate 125 mg (potency)
structure (smiles),measurement,setting,value
"O=C(O)CCCCCCCCCCCCC(=O)O [Compound 7-Na, 1,12-Dodecamethylene dicarboxylic acid]",Urinary excretions (%) 0-2 hr.,[1]; 6059-S 125 mg (potency),42.2%
same,Urinary excretions (%) 2-4 hr.,[1]; 6059-S 125 mg (potency),8.8%
same,Urinary excretions (%) 4-6 hr.,[1]; 6059-S 125 mg (potency),1.0%
same,Urinary excretions (%) Total (0-6 hr.),[1]; 6059-S 125 mg (potency),52.0%
same,Urinary excretions of AB-PC (%) (0-6 hr.),[2]; added compound 10%,22.6%
"CCCCCCCCCCCCCC(=O)N[C@H](C(=O)O)[C@@H](C)O [Compound 26-Na, N--Myristoyl-L-threonine]",Urinary excretions (%) 0-2 hr.,[1]; Cefsulodin 125 mg (potency),41.1%
same,Urinary excretions (%) 2-4 hr.,[1]; Cefsulodin 125 mg (potency),8.2%
same,Urinary excretions (%) 4-6 hr.,[1]; Cefsulodin 125 mg (potency),0.5%
same,Urinary excretions (%) Total (0-6 hr.),[1]; Cefsulodin 125 mg (potency),49.8%
same,Urinary excretions (%) 0-2 hr.,[1]; Sulbenicillin 125 mg (potency),40.0%
same,Urinary excretions (%) 2-4 hr.,[1]; Sulbenicillin 125 mg (potency),5.1%
same,Urinary excretions (%) 4-6 hr.,[1]; Sulbenicillin 125 mg (potency),1.0%
same,Urinary excretions (%) Total (0-6 hr.),[1]; Sulbenicillin 125 mg (potency),46.2%
same,Urinary excretions (%) 0-2 (hr.),[2],26.1%
same,Urinary excretions (%) 2-4 (hr.),[2],3.0%
same,Urinary excretions (%) 4-6 (hr.),[2],0.9%
same,Urinary excretions (%) Total (0-6 hr.),[2],30.0%
"CCCCCC(=O)N[C@@H](Cc1ccccc1)C(=O)O [Compound 21-Na, N--Caproyl-L-phenylalanine]",Urinary excretions (%) 0-2 (hr.),[2],16.8%
same,Urinary excretions (%) 2-4 (hr.),[2],2.0%
same,Urinary excretions (%) 4-6 (hr.),[2],1.1%
same,Urinary excretions (%) Total (0-6 hr.),[2],19.9%
"O=C(O)CCCCCCCCCC(=O)O [Compound 1-Na, 1,9-Nonamethylendicarboxylic acid]",Urinary excretions (%) 0-2 hr.,[1]; Cephalothin 125 mg (potency),20.5%
same,Urinary excretions (%) 2-4 hr.,[1]; Cephalothin 125 mg (potency),3.0%
same,Urinary excretions (%) 4-6 hr.,[1]; Cephalothin 125 mg (potency),0.2%
same,Urinary excretions (%) Total (0-6 hr.),[1]; Cephalothin 125 mg (potency),23.7%
same,Urinary excretions of AB-PC (%) (0-6 hr.),[2]; added compound 10%,15.2%
"CCCCOc1ccc(C(=O)O)cc1 [Compound 3-Na, p-Butoxybenzoic acid]",Blood glucose level 0 hr.,[3],100%
same,Blood glucose level 0.5 hr.,[3],60.0%
same,Blood glucose level 1.0 hr.,[3],50.5%
same,Blood glucose level 2.0 hr.,[3],103.3%
same,Blood glucose level […].,[3],79.5%
same,Urinary excretions (%) 0-2 hr.,[4]; [5],45.1%
same,Urinary excretions (%) 4-6 hr.,[4]; [5],2.6%
same,Urinary excretions (%) Total (0-6 hr.),[4]; [5],59.8%
same,Urinary excretions (%) 0-2 hr.,[1]; Cefmetazole 125 mg (potency),45.0%
same,Urinary excretions (%) 2-4 hr.,[1]; Cefmetazole 125 mg (potency),20.0%
same,Urinary excretions (%) 4-6 hr.,[1]; Cefmetazole 125 mg (potency),1.5%
same,Urinary excretions (%) Total (0-6 hr.),[1]; Cefmetazole 125 mg (potency),66.5%
same,Urinary excretions (%) 0-2 hr.,[1]; FK-749 125 mg (potency),41.6%
same,Urinary excretions (%) 2-4 hr.,[1]; FK-749 125 mg (potency),19.2%
same,Urinary excretions (%) 4-6 hr.,[1]; FK-749 125 mg (potency),3.0%
same,Urinary excretions (%) Total (0-6 hr.),[1]; FK-749 125 mg (potency),63.8%
same,Urinary excretions of AB-PC (%) (0-6 hr.),[2]; added compound 10%,20.9%
"CC(=O)O [Acetic acid Na, Acetic acid, reference compound]",Urinary excretions of AB-PC (%) (0-6 hr.),[2]; added compound 10%,3.6%
"CC1CCC(C(C)C)C(OCC(=O)O)C1 [Compound 11-Na, L-Menthoxyacetic acid]",Urinary excretions of AB-PC (%) (0-6 hr.),[2]; added compound 10%,20.0%
"O=C(O)CCCCCCCCCCCC(=O)O [Compound 5-Na, 1,11-Undecamethylene dicarboxylic acid]",Blood glucose level 0 hr.,[3],100%
same,Blood glucose level 0.5 hr.,[3],60.0%
same,Blood glucose level 0.75 hr.,[3],51.7%
same,Blood glucose level 1.0 hr.,[3],55.2%
same,Blood glucose level 2.0 hr.,[3],110.3%
same,Blood glucose level […].,[3],80.5%
same,Urinary excretions (%) 0-2 hr.,[4]; [6],41.1%
same,Urinary excretions (%) 2-4 hr.,[4]; [6],8.8%
same,Urinary excretions (%) 4-6 hr.,[4]; [6],1.1%
same,Urinary excretions (%) Total (0-6 hr.),[4]; [6],51.0%
same,Urinary excretions (%) 0-2 hr.,[1]; Cefotiam 125 mg (potency),40.0%
same,Urinary excretions (%) 2-4 hr.,[1]; Cefotiam 125 mg (potency),8.0%
same,Urinary excretions (%) 4-6 hr.,[1]; Cefotiam 125 mg (potency),2.1%
same,Urinary excretions (%) Total (0-6 hr.),[1]; Cefotiam 125 mg (potency),60.1%
same,Urinary excretions of AB-PC (%) (0-6 hr.),[2]; Compound (I) 1%,30.8%
"CCCCCCOc1ccc(C(=O)O)cc1 [Compound 6-Na, p-Hexyloxybenzoic acid]",Urinary excretions (%) 0-2 hr.,[1]; SCE-1365 125 mg (potency),45.0%
same,Urinary excretions (%) 2-4 hr.,[1]; SCE-1365 125 mg (potency),18.2%
same,Urinary excretions (%) 4-6 hr.,[1]; SCE-1365 125 mg (potency),1.8%
same,Urinary excretions (%) Total (0-6 hr.),[1]; SCE-1365 125 mg (potency),65.0%
same,Urinary excretions of AB-PC (%) (0-6 hr.),[2]; added compound 10%,21.2%
"O=C(O)CCCCCC(=O)O [Pimelic acid Na, Pimelic acid, reference compound]",Urinary excretions of AB-PC (%) (0-6 hr.),[2]; added compound 10%,6.0%
"CCCCCCCCCC(=O)OCC [Ethyl caprate, reference compound]",Urinary excretions of AB-PC (%) (0-6 hr.),[2]; added compound 10%,3.0%
"CCCCc1ccc(C(=O)O)cc1 [Compound 4-Na, p-Butylbenzoic acid]",Urinary excretions (%) 0-2 hr.,[1]; Cefsulodin 125 mg (potency),30.5%
same,Urinary excretions (%) 2-4 hr.,[1]; Cefsulodin 125 mg (potency),15.0%
same,Urinary excretions (%) 4-6 hr.,[1]; Cefsulodin 125 mg (potency),1.1%
same,Urinary excretions (%) Total (0-6 hr.),[1]; Cefsulodin 125 mg (potency),45.6%
same,Urinary excretions of AB-PC (%) (0-6 hr.),[2]; added compound 10%,28.6%
"CCCCCCCCCC(=O)N[C@H](C(=O)O)C(C)C [Compound 24-Na, N--Caprinoyl-L-valine]",Urinary excretions (%) 0-2 hr.,[1]; Cefotaxime 125 mg (potency),31.5%
same,Urinary excretions (%) 2-4 hr.,[1]; Cefotaxime 125 mg (potency),10.0%
same,Urinary excretions (%) 4-6 hr.,[1]; Cefotaxime 125 mg (potency),0.8%
same,Urinary excretions (%) Total (0-6 hr.),[1]; Cefotaxime 125 mg (potency),42.3%
same,Urinary excretions (%) 0-2 hr.,[1]; FK-749 125 mg (potency),45.0%
same,Urinary excretions (%) 2-4 hr.,[1]; FK-749 125 mg (potency),5.6%
same,Urinary excretions (%) 4-6 hr.,[1]; FK-749 125 mg (potency),2.5%
same,Urinary excretions (%) Total (0-6 hr.),[1]; FK-749 125 mg (potency),53.1%
same,Urinary excretions (%) 0-2 (hr.),[2],18.0%
same,Urinary excretions (%) 2-4 (hr.),[2],5.1%
same,Urinary excretions (%) 4-6 (hr.),[2],1.0%
same,Urinary excretions (%) Total (0-6 hr.),[2],23.1%
"CCCCCCCCCCCCCCCC(=O)N[C@@H](CC(=O)O)C(=O)O [Compound 27-Na, N--Palmitoyl-L-aspartic acid]",Urinary excretions (%) 0-2 hr.,[1]; Cefotiam 125 mg (potency),35.2%
same,Urinary excretions (%) 2-4 hr.,[1]; Cefotiam 125 mg (potency),6.2%
same,Urinary excretions (%) 4-6 hr.,[1]; Cefotiam 125 mg (potency),0.5%
same,Urinary excretions (%) Total (0-6 hr.),[1]; Cefotiam 125 mg (potency),41.9%
same,Urinary excretions (%) 0-2 (hr.),[2],22.0%
same,Urinary excretions (%) 2-4 (hr.),[2],4.1%
same,Urinary excretions (%) 4-6 (hr.),[2],0.7%
same,Urinary excretions (%) Total (0-6 hr.),[2],26.8%
"c1ccc2occc2c1 [Benzofurane, reference compound]",Urinary excretions of AB-PC (%) (0-6 hr.),[2]; added compound 10%,1.9%
"c1ccc2nc3ccccc3cc2c1 [Acridine, reference compound]",Urinary excretions of AB-PC (%) (0-6 hr.),[2]; added compound 10%,2.1%
"CCCC(=O)NC(C(=O)O)c1ccccc1 (racemic) [Compound 29-Na, N--Butyryl-DL-phenylglycine]",Blood glucose level 0 hr.,[3],100%
same,Blood glucose level 0.5 hr.,[3],60.0%
same,Blood glucose level 0.75 hr.,[3],50.6%
same,Blood glucose level 1.0 hr.,[3],55.0%
same,Blood glucose level 2.0 hr.,[3],111.3%
same,Blood glucose level […].,[3],81.2%
same,Urinary excretions (%) 0-2 hr.,[1]; 6059-S 125 mg (potency),47.2%
same,Urinary excretions (%) 2-4 hr.,[1]; 6059-S 125 mg (potency),8.6%
same,Urinary excretions (%) 4-6 hr.,[1]; 6059-S 125 mg (potency),2.0%
same,Urinary excretions (%) Total (0-6 hr.),[1]; 6059-S 125 mg (potency),57.8%
"O=C(O)c1ccccc1O [Salicylic acid Na, Salicylic acid, reference compound]",Urinary excretions of AB-PC (%) (0-6 hr.),[2]; added compound 10%,9.6%
"O=C(O)Cc1ccccc1 [Phenylacetic acid Na, Phenylacetic acid, reference compound]",Urinary excretions of AB-PC (%) (0-6 hr.),[2]; added compound 10%,5.8%
"O=C(O)COc1cccc2ccccc12 [Compound 8-Na, α-Napthoxacetic acid]",Urinary excretions of AB-PC (%) (0-6 hr.),[2]; added compound 10%,15.1%
"O=C(O)c1ccccc1 [Benzoic acid Na, Benzoic acid, reference compound]",Urinary excretions of AB-PC (%) (0-6 hr.),[2]; added compound 10%,5.6%

# From patent US4442090A, “Absorption-promoting compounds, compositions thereof with pharmaceuticals and/or bases for rectal administration and method of use” (Kyoto Yakuhin Kogyo Kabushiki Kaisha, priority 1980, dated 1984)
